Legend:
NBD1 = biological target: T1, NBD1 (Homo sapiens, UniProt P13569); test: Aggregation analysis using differential static light scattering (DSLS), thermal stability of NBD1 (ΔTagg); assay type: binding; details: ΔTagg versus DMSO control, NBD1 0.2 mg/ml
T1 construct: Purified recombinant NBD1 was produced using previously described methods; made in house
In short: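 Stabilisation is measured as the shift in aggregation onset of recombinant NBD1 (0.2 mg/ml, 2 mM ATP, 5 mM MgCl2, pH7.6) exposed to compound. Images are taken every 0.5° C. while heating at 1° C. per minute, and the inflection-point Tagg is corrected by the DMSO mean.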

CFTR = biological target: T2, CFTR (Homo sapiens, UniProt P13569, DEL508-508); test: TECC24 AUC fold over DMSO @10 μM, CFTR-mediated transepithelial chloride transport in CF-HBE cells; assay type: cell-based; details: test agent AUC divided by DMSO vehicle AUC, primary CF-HBE cells, ΔF508 homozygous donor, 48 hours incubation
T2 construct: Primary human bronchial epithelial cells from a ΔF508 homozygous CF donor; host or cells: primary human bronchial epithelial cells (CF-HBE), ΔF508 homozygous donor
In short: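 ΔF508-homozygous primary bronchial epithelial cells incubated 48 h at 36.5° C with compound (10 μM) in IL-13-containing medium, then TECC24 current-clamp recording in pH 7.4 Hepes saline with benzamil 10 μM, forskolin 10 μM, then CFTR inhibitor-172 20 μM. Equivalent Cl− current AUC between forskolin and inhibitor, expressed as fold over DMSO.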

T2 sequence (P13569 with tags, fused parts or gaps DEL508-508): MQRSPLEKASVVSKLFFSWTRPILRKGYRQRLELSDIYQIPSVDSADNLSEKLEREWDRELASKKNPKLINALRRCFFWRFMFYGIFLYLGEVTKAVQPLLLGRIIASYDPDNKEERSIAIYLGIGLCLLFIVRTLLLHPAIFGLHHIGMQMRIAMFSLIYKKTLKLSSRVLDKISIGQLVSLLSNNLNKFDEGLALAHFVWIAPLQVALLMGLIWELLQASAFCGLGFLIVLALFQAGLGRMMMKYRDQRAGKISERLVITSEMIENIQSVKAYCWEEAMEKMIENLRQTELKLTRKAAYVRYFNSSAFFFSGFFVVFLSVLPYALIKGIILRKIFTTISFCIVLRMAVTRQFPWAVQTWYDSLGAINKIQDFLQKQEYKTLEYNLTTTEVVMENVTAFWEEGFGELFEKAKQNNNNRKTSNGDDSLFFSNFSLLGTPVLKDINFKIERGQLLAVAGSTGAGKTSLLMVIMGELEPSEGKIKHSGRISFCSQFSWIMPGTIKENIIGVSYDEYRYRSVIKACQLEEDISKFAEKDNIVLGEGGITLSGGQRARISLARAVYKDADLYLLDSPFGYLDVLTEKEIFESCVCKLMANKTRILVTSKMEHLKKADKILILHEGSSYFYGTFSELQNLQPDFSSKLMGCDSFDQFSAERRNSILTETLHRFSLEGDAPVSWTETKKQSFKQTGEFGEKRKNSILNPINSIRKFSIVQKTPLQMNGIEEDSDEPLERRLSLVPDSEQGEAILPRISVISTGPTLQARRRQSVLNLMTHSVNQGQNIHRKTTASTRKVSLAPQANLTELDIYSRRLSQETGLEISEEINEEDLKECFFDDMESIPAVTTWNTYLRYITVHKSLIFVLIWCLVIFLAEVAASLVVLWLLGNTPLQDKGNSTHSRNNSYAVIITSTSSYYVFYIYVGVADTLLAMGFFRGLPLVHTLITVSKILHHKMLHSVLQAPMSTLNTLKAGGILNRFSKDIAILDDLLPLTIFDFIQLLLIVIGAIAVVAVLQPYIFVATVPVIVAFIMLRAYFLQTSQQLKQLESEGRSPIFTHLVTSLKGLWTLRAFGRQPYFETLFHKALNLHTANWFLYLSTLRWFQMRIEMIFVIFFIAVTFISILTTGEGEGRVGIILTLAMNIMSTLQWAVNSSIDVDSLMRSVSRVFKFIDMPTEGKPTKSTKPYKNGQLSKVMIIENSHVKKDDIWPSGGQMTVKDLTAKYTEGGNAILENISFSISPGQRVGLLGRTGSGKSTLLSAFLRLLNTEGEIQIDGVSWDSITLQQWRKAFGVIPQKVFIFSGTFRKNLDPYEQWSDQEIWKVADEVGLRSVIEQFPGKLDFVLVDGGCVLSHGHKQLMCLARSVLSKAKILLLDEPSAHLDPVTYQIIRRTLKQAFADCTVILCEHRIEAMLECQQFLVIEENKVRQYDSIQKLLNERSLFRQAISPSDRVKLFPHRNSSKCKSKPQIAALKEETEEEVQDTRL
T1 sequence (P13569 423-646 limits assumed): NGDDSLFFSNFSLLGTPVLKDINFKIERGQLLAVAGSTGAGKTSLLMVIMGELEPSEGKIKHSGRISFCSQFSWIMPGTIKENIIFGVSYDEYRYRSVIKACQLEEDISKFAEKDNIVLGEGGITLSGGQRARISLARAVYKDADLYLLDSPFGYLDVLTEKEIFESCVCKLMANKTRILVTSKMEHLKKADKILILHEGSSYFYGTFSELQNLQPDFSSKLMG

SMILES	DSLS 3D (100 μM ΔT) (NBD1)	TECC (AUC, 10 μM) (CFTR)
Cn1nc2nc1-c1cc(ccc1F)Oc1c(F)c(F)c3[nH]ccc3c1CCS(=O)(=O)CC(C)(C)CCCC2(C#N)c1cccc(CC2(C(=O)O)CC2)c1 (single isomer, unassigned) [Compound 121B, 1-[[3-(6-cyano-21,22,28-trifluoro-3,10,10-trimethyl-12,12-dioxo-24-oxa-12λ6-thia-3,4,19,30-tetrazapentacyclo[23.3.1.12,5.015,23.016,20]triaconta-1(29),2(30),4,15,17,20,22,25,27-nonaen-6-yl)phenyl]methyl]cyclopropanecarboxylic Acid]	A (an ΔTagg value less than or equal to 5 °C is marked “A”)	A (a TECC value less than 12 is marked “A”)
Cn1nc2nc1-c1cc(ccc1F)Oc1c(F)cc3[nH]ccc3c1CCS(=O)(=O)CC(C)(C)CCCC2(C#N)c1cccc(CC2(C(=O)O)CC2)c1 (single isomer, unassigned) [Compound 122A, 1-[[3-(6-cyano-22,28-difluoro-3,10,10-trimethyl-12,12-dioxo-24-oxa-12λ6-thia-3,4,19,30-tetrazapentacyclo[23.3.1.12,5.015,23.016,20]triaconta-1(29),2(30),4,15,17,20,22,25,27-nonaen-6-yl)phenyl]methyl]cyclopropanecarboxylic Acid]	C (a value greater than 10 °C and less than or equal to 25 °C is marked “C”)	A (a TECC value less than 12 is marked “A”)
Cn1nc2nc1-c1cc(ccc1F)Oc1c(F)cc3[nH]ccc3c1CCS(=O)(=O)CC(C)(C)CCCC2(C#N)c1cccc(CC2(C(=O)O)CC2)c1 (single isomer, unassigned) [Compound 122B, 1-[[3-(6-cyano-22,28-difluoro-3,10,10-trimethyl-12,12-dioxo-24-oxa-12λ6-thia-3,4,19,30-tetrazapentacyclo[23.3.1.12,5.015,23.016,20]triaconta-1(29),2(30),4,15,17,20,22,25,27-nonaen-6-yl)phenyl]methyl]cyclopropanecarboxylic Acid]	A (an ΔTagg value less than or equal to 5 °C is marked “A”)	A (a TECC value less than 12 is marked “A”)
Cn1nc2nc1-c1cc(ccc1F)Oc1c(F)cc3[nH]ccc3c1CCS(=O)(=O)CC(C)(C)OCCC2(C#N)c1cccc(CC2(C(=O)O)CC2)c1 (single isomer, unassigned) [Compound 123A, 1-[[3-(6-cyano-22,28-difluoro-3,10,10-trimethyl-12,12-dioxo-9,24-dioxa-12λ6-thia-3,4,19,30-tetrazapentacyclo[23.3.1.12,5.015,23.016,20]triaconta-1(29),2(30),4,15,17,20,22,25,27-nonaen-6-yl)phenyl]methyl]cyclopropanecarboxylic Acid]	A (an ΔTagg value less than or equal to 5 °C is marked “A”)	A (a TECC value less than 12 is marked “A”)
Cn1nc2nc1-c1cc(ccc1F)Oc1c(F)cc3[nH]ccc3c1CCS(=O)(=O)CC(C)(C)OCCC2(C#N)c1cccc(CC2(C(=O)O)CC2)c1 (single isomer, unassigned) [Compound 123B, 1-[[3-(6-cyano-22,28-difluoro-3,10,10-trimethyl-12,12-dioxo-9,24-dioxa-12λ6-thia-3,4,19,30-tetrazapentacyclo[23.3.1.12,5.015,23.016,20]triaconta-1(29),2(30),4,15,17,20,22,25,27-nonaen-6-yl)phenyl]methyl]cyclopropanecarboxylic Acid]	C (a value greater than 10 °C and less than or equal to 25 °C is marked “C”)	A (a TECC value less than 12 is marked “A”)
CC(Cc1cccc(C2(C#N)CCCC(C)(C)CS(=O)(=O)CCc3c(c(F)cc4[nH]ccc34)Oc3ccc(F)c(c3)-c3nc2nn3C)c1F)C(=O)O (single isomer, unassigned) [Compound 124A, 3-[3-(6-cyano-22,28-difluoro-3,10,10-trimethyl-12,12-dioxo-24-oxa-12λ6-thia-3,4,19,30-tetrazapentacyclo-[23.3.1.12,5.015,23.016,20]triaconta-1(29),2(30),4,15,17,20,22,25,27-nonaen-6-yl)-2-fluoro-phenyl]-2-methyl-propanoic Acid]	C (a value greater than 10 °C and less than or equal to 25 °C is marked “C”)	A (a TECC value less than 12 is marked “A”)
CC(Cc1cccc(C2(C#N)CCCC(C)(C)CS(=O)(=O)CCc3c(c(F)cc4[nH]ccc34)Oc3ccc(F)c(c3)-c3nc2nn3C)c1F)C(=O)O (single isomer, unassigned) [Compound 124B, 3-[3-(6-cyano-22,28-difluoro-3,10,10-trimethyl-12,12-dioxo-24-oxa-12λ6-thia-3,4,19,30-tetrazapentacyclo-[23.3.1.12,5.015,23.016,20]triaconta-1(29),2(30),4,15,17,20,22,25,27-nonaen-6-yl)-2-fluoro-phenyl]-2-methyl-propanoic Acid]	B (a value above 5 °C and less than or equal to 10 °C is marked “B”)	A (a TECC value less than 12 is marked “A”)
C[C@@H](Cc1cccc(C2(C)CCCC(C)(C)CS(=O)(=O)CCc3c(c(F)cc4[nH]ccc34)C(=O)c3ccc(F)c(c3)-c3nc2nn3C)c1)C(=O)O (single isomer, unassigned) [Compound 125A]	B (a value above 5 °C and less than or equal to 10 °C is marked “B”)	B (a value between 12-20 is marked “B”)
C[C@@H](Cc1cccc(C2(C)CCCC(C)(C)CS(=O)(=O)CCc3c(c(F)cc4[nH]ccc34)C(=O)c3ccc(F)c(c3)-c3nc2nn3C)c1)C(=O)O (single isomer, unassigned) [Compound 125B]	C (a value greater than 10 °C and less than or equal to 25 °C is marked “C”)	B (a value between 12-20 is marked “B”)
C[C@H](Cc1cccc(C2(C)CCCC(C)(C)CS(=O)(=O)CCc3c(c(F)cc4[nH]ccc34)C(=O)c3ccc(F)c(c3)-c3nc2nn3C)c1)C(=O)O (single isomer, unassigned) [Compound 126A]	C (a value greater than 10 °C and less than or equal to 25 °C is marked “C”)	B (a value between 12-20 is marked “B”)
C[C@H](Cc1cccc(C2(C)CCCC(C)(C)CS(=O)(=O)CCc3c(c(F)cc4[nH]ccc34)C(=O)c3ccc(F)c(c3)-c3nc2nn3C)c1)C(=O)O (single isomer, unassigned) [Compound 126B]	B (a value above 5 °C and less than or equal to 10 °C is marked “B”)	B (a value between 12-20 is marked “B”)
COc1ccc2cc1-c1nc(nn1C)C(C)(c1cccc(C[C@@H](C)C(=O)O)c1)CCCC(C)(C)CS(=O)(=O)CCc1c(c(F)cc3[nH]ccc13)C2=O (single isomer, unassigned) [Compound 127A]	B (a value above 5 °C and less than or equal to 10 °C is marked “B”)	A (a TECC value less than 12 is marked “A”)
COc1ccc2cc1-c1nc(nn1C)C(C)(c1cccc(C[C@@H](C)C(=O)O)c1)CCCC(C)(C)CS(=O)(=O)CCc1c(c(F)cc3[nH]ccc13)C2=O (single isomer, unassigned) [Compound 127B]	A (an ΔTagg value less than or equal to 5 °C is marked “A”)	A (a TECC value less than 12 is marked “A”)
C[C@@H](Cc1cccc(C2(C)CCCC(C)(C)CS(=O)(=O)CCc3c(c(F)cc4[nH]ccc34)Oc3ccc(F)c(c3)-c3nc2c[nH]3)c1)C(=O)O (single isomer, unassigned) [Compound 129A]	A (an ΔTagg value less than or equal to 5 °C is marked “A”)	A (a TECC value less than 12 is marked “A”)
C[C@@H](Cc1cccc(C2(C)CCCC(C)(C)CS(=O)(=O)CCc3c(c(F)cc4[nH]ccc34)Oc3ccc(F)c(c3)-c3nc2c[nH]3)c1)C(=O)O (single isomer, unassigned) [Compound 129B]	C (a value greater than 10 °C and less than or equal to 25 °C is marked “C”)	A (a TECC value less than 12 is marked “A”)
[2H]C([2H])([2H])C1(c2cccc(C[C@H](C)C(=O)O)c2)CCCC2(COC2)CS(=O)(=O)CCc2c(c(F)cc3[nH]ccc23)Oc2ccc(F)c(c2)-c2nc1nn2C (single isomer, unassigned) [Compound 130A]	C (a value greater than 10 °C and less than or equal to 25 °C is marked “C”)	C (a value between 20 and 80 is marked “C”)
[2H]C([2H])([2H])C1(c2cccc(C[C@H](C)C(=O)O)c2)CCCC2(COC2)CS(=O)(=O)CCc2c(c(F)cc3[nH]ccc23)Oc2ccc(F)c(c2)-c2nc1nn2C (single isomer, unassigned) [Compound 130B]	C (a value greater than 10 °C and less than or equal to 25 °C is marked “C”)	C (a value between 20 and 80 is marked “C”)
CC(Cc1cccc(C2(C)CCCC(C)(C)CS(=O)(=O)CCc3c(c(F)cc4[nH]ccc34)Cn3cc(ccc3=O)-c3nc2nn3C)c1)C(=O)O (single isomer, unassigned) [Compound 132A, 3-[3-(22-fluoro-3,6,10,10-tetramethyl-12,12,26-trioxo-12λ6-thia-3,4,19,25,30-pentazapentacyclo-[23.3.1.12,5.015,23.016,20]triaconta-1(29),2(30),4,15,17,20,22,27-octaen-6-yl)phenyl]-2-methyl-propanoic Acid]	A (an ΔTagg value less than or equal to 5 °C is marked “A”)	A (a TECC value less than 12 is marked “A”)

— patent US12649750B2, “Macrocyclic compounds, compositions, and methods of using thereof” (Sionna Therapeutics Inc., priority 2022, dated 2026)
